The target of experiment [1] is T1, PdeA (Caulobacter vibrioides, UniProt A0A0H3CDG5).
T1 sequence (A0A0H3CDG5 1-555): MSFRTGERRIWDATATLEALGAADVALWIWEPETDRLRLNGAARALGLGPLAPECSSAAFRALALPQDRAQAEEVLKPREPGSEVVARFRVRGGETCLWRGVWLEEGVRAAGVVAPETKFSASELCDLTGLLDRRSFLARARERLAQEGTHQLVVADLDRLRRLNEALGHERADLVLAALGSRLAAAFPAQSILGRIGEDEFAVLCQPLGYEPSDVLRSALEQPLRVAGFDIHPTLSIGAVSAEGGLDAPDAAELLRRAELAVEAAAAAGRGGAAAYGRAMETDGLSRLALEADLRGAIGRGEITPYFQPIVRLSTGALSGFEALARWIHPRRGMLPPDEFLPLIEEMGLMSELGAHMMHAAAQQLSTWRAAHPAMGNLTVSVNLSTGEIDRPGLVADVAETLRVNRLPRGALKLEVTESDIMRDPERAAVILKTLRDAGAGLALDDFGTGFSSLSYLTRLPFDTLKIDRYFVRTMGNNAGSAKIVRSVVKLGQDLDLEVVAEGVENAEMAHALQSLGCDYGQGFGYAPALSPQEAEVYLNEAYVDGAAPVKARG
The experiment can be described thus: activation of purified PdeA phosphodiesterase, c-di-GMP turnover read with cdGreen2, GTP dose-response. Type of experiment: biochemical.

The target in experiment [2] is T1, PdeA. Kind of experiment: purified phosphodiesterase turnover of c-di-GMP read with cdGreen2. Type of experiment: biochemical.

Structures are written as SMILES.

One may read the Kd as a measure of binding affinity in units of concentration. Higher therefore signals lower affinity.

In the case of `Nc1nc2c(ncn2[C@@H]2O[C@H](COP(=O)(O)OP(=O)(O)OP(=O)(O)O)[C@@H](O)[C@H]2O)c(=O)[nH]1` [GTP], in experiment [1], the Kd was about 3.4 µM.

As to `Nc1nc2c(ncn2[C@@H]2O[C@@H]3COP(=O)(O)O[C@H]4[C@@H](O)[C@H](n5cnc6c(=O)[nH]c(N)nc65)O[C@@H]4COP(=O)(O)O[C@H]3[C@H]2O)c(=O)[nH]1` [c-di-GMP], the “purified phosphodiesterase turnover of c-di-GMP read with cdGreen2” value in experiment [2] is listed as “purified cdGreen2 also accurately monitored the breakdown of c-di-GMP by all PDEs tested”.
